Source: patent US6818215B2, “Antibodies to senescent cell-derived inhibiters of DNA synthesis” (priority 1991, dated 2004)

Columns and labels:
[1] = tested on: hamster dihydrofolate reductase (DHFR) promoter; experiment: CAT reporter transcription assay, DHFR-CAT; format: cell-based
Protocol: (§1) The effect of the human SDI-1 on transcription driven by two E2F-responsive promoters was determined. Proliferating A31 cells were transfected with an SDI-1 expression vector in which the SDI-1 cDNA was driven by the strong constitutive cytomegalovirus early promoter (CMV) together with a reporter vector in which the chloramphenicol acetyltransferase (CAT) gene was driven by either the hamster dihydrofolate reductase (DHFR) promoter or the human cdc2 promoter (cdc2-CAT). A31 cells are Balb/c murine 3T3 fibroblasts whose origin and growth properties have been described (Lu, K. et al., Molec. Cell. Biol. 9:3411-3417 (1989); Dimri, G. P et al., J. Biol. Chem. 269:16180-16186 (1994), herein incorporated by reference). Cells were transfected with 2 μg of expression vectors, reporters vectors (for transactivation) and the CMV-β-gal identification/normalization vector using Lipofectamine (Gibco-BRL), as described by Dimri, G. P et al. (J. Biol. Chem. 269:16180-16186 (1994), herein incorporated by reference), The vector backbone was added to the mixture as needed to equalize the amount of transfected DNA. Seventy-two hours later, the cells were lysed and assayed for chloramphenicol acetyl transferase (CAT) and β-galactosidase activity. Both DHFR and cdc2 were expressed by proliferating cells, largely due to E2F-mediated transcription that is dependent on E2F binding sites in the 5′ regulatory regions of these genes (Slansky, J. E. et al., Molec. Cell. Biol. 13:1610-1618 (1993); Dalton, S., EMBO J. 11:1797-1804 (1992)).
(§2) The SDI-1 expression vector, CMV-SDI-1, but not the control vector, suppressed CAT activity driven by either the DHFR or cdc2 promoter (Table 16). CMV-SDI-1 was maximally inhibitory at above 2 μg of DNA under the assay conditions used. CAT activity in Table 16 is reported in counts per minute, normalized to the β-galactosidase activity. At this concentration, CMV-SDI-1 inhibited the DHFR promoter, which contains two strong E2F binding sites (Slansky, J. E. et al., Molec. Cell. Biol. 13:1610-1618 (1993)), somewhat more strongly than the cdc2 promoter, which contains a single E2F binding site (Dalton, S., EMBO J. 11:1797-1804 (1992)) (50-70% inhibition vs 40-50% inhibition). This difference in sensitivity is consistent with the finding that the DHFR promoter is somewhat more sensitive than the cdc2 promoter to stimulation by E2F1, a component of E2F (Dimri, G. P et al., J. Biol. Chem. 269:16180-16186 (1994)). At the concentrations used here, CMV-SDI-1 inhibited DHFR-CAT and cdc2-CAT expression to approximately the same extent that it inhibited DNA replication.

[2] = tested on: B16 murine melanoma cell line; experiment: Lipofectamine liposome-mediated delivery of SDI-1 protein; format: cell-based
[3] = tested on: SV40 early promoter with mutant E2F binding sites (SV/E2Fm); experiment: CAT reporter transcription assay, SV/E2Fm-CAT; format: cell-based; conditions: A31 cells
Protocol: as §1, with “Seventy-two hours later, the cells were lysed and assayed for chloramphenicol acetyl transferase (CAT) and β-galactosidase activity. Both DHFR and cdc2 were expressed by proliferating cells, largely due to E2F-mediated transcription that is dependent on E2F binding sites in the 5′ regulatory regions of these genes (Slansky, J. E. et al., Molec. Cell. Biol. 13:1610-1618 (1993); Dalton, S., EMBO J. 11:1797-1804 (1992)).” left out
To more critically ascertain whether the inhibition of transcription by SDI-1 was E2F-dependent, three E2F binding sites were inserted into the SV40 early promoter and the effect of CMV-SDI-1 on CAT activity driven by this modified promoter (SV/E2F) was determined. […]

cdk2 protein = target: T1, cdk2 protein (Homo sapiens, UniProt P24941); experiment: Binding of in vitro translated SDI-1 deletion mutants to purified cdk2, anti-cdk2 immunoprecipitation; conditions: 45 μl translation product, 1 ug cdk2, 4° C.
T1 construct: host or cells: baculovirus expression system
Protocol: To determine whether the DNA synthesis inhibition caused by these mutants was occurring through inhibition of cdk kinases, the binding of in vitro translated deletion mutant proteins products with purified cdk2protein was examined. Thus, the various deletion mutants of SDI-1 were translated in reticulocyte lysates (Promega) using pBluescript based plasmids as transcription templates for the T7 RNA polymerase. For in vitro binding, 45 μl of the translation product was added to 500 μl binding buffer (50 mM Tris/HCl, pH 7.5, 120 mM NaCl, 2 mM EDTA, 0.1% NP-40, 1 mM NaF, 0.1 m.M sodium vanidate, 5 μg/ml leupeptin, 5 μg/ml soybean trypsin inhibitor, 5 μg/ml aprotinin) containing 1 ug cdk2 protein purified from a bacculovirus expression system. The mixture was gently rocked for 1 hour at 4° C. and then 7.5 μg anti-cdk2 rabbit polyclonal antibody was added. Mixing was continued for 1 hour at 4° C. The immunocomplex was absorbed by incubation with 40 μl protein G plus A beads for 2 hr. The matrices were then washed three times with 0.5 ml of binding buffer prior to electrophoresis and autoradiography.

human cdc2 promoter = experiment: CAT reporter transcription assay, cdc2-CAT; format: cell-based
Protocol: as §1, §2

SDI-1: senescent cell derived inhibitor of DNA synthesis, 164 amino acid protein, SEQ ID NO:2
% Activity ([1]; SDI-1 0.2 μg, A31 cells): 97% | % Inhibition ([1]; SDI-1 0.2 μg, A31 cells): 4% | Normalized CAT Activity ([1]; SDI-1 0.2 μg, A31 cells): 9155 counts per minute | % Activity ([1]; SDI-1 1.0 μg): 87% | % Inhibition ([1]; SDI-1 1.0 μg): 13% | Normalized CAT Activity ([1]; SDI-1 1.0 μg): 8196 counts per minute | % Activity ([1]; SDI-1 2.0 μg): 28% | % Inhibition ([1]; SDI-1 2.0 μg): 72% | Normalized CAT Activity ([1]; SDI-1 2.0 μg): 2613 counts per minute | % Activity ([1]; SDI-1 4.0 μg): 19% | % Inhibition ([1]; SDI-1 4.0 μg): 81% | Normalized CAT Activity ([1]; SDI-1 4.0 μg): 1757 counts per minute | 3H-Tdr Uptake ([2]; 48 hr): 2134 ± 294 | Cell Number ([2]; 48 hr): 7820 ± 141 | Ratio of SDI-1 Treated to BSA Treated, 3H-Tdr Uptake ([2]; 48 hr): 0.34 | Ratio of SDI-1 Treated to BSA Treated, Cell No. ([2]; 48 hr): 0.29 | detection of SDI-1 in cells ([2]; 72 hours after liposome treatment): not detectable | 3H-Tdr Uptake ([2]; 72 hr): 8765 ± 533 | Cell Number ([2]; 72 hr): 23710 ± 1485 | Ratio of SDI-1 Treated to BSA Treated, 3H-Tdr Uptake ([2]; 72 hr): 0.3 | Ratio of SDI-1 Treated to BSA Treated, Cell No. ([2]; 72 hr): 0.28 | fraction of cells with SDI-1 detected in the nuclei ([2]; after 3-4 hours): ½ | fraction of cells with SDI-1 detected in the nuclei ([2]; after 9 hours): ⅓ | Transcription (Normalized) % Activity [3]: 93% | Transcription (Normalized) % Inhibition [3]: 7% | binding to purified cdk2 protein (cdk2 protein): bound cdk2 protein efficiently | Transcription (Normalized) % Activity (human cdc2 promoter; A31 cells (Table 17)): 52% | Transcription (Normalized) % Inhibition (human cdc2 promoter; A31 cells (Table 17)): 48% | % Activity (human cdc2 promoter; SDI-1 1.0 μg): 50% | % Inhibition (human cdc2 promoter; SDI-1 1.0 μg): 50% | Normalized CAT Activity (human cdc2 promoter; SDI-1 1.0 μg): 1664 counts per minute | % Activity (human cdc2 promoter; SDI-1 2.0 μg): 60% | % Inhibition (human cdc2 promoter; SDI-1 2.0 μg): 40% | Normalized CAT Activity (human cdc2 promoter; SDI-1 2.0 μg): 2000 counts per minute | % Activity (human cdc2 promoter; SDI-1 4.0 μg): 61% | % Inhibition (human cdc2 promoter; SDI-1 4.0 μg): 39% | Normalized CAT Activity (human cdc2 promoter; SDI-1 4.0 μg): 2008 counts per minute
